# How the values were obtained:
# Assay type in all cases: in vivo
# ICH mice [1] = experiment: Brain water content in ICH mouse model; details: 5 mg/kg/daily i.p., first dose 1 h after ICH onset, 24 h, vs vehicle
# Source text: (§1) The intracerebral hemorrhage (ICH) model in mice was used to illustrate the protective benefits of the compounds of this disclosure, and FIG. 1 depicts the procedure in preparing this model. ICH was induced in C57 B/L6 male mice by the injection of an autologous blood or collagenase as previously described (Lauer et al., Circulation 124: 1654-1662 (2011); Rynkowski et al., Nat. Protoc. 3:122-128 (2008)). Mice were anesthetized using isoflurane inhalation and fixed on a stereotactic frame. A burr hole was drilled on the right side of the skull at 2.3 mm lateral to the midline and 0.5 mm anterior to the bregma. For the autologous blood model, 30 μl of non-heparinized blood was withdrawn from the angular vein. The first 5 μl blood was injected at a depth of 3 mm beneath the hole, and the rest 25 μl blood were injected at 3.7 mm beneath the hole with a rate of 1 μl/min. In the collagenase model, 0.038 U of the bacterial collagenase (in 0.5 μl saline) was infused to the striatum (0.5 mm anterior, 2.3 mm right lateral, and 3.5 mm deep relative to bregma) at a speed of 0.5 μl/min. Mice on the sham control were injected with an equal volume of saline. Throughout the procedure, the body temperature was maintained at 37° C. with a homeothermic blanket. After the surgery, mice were under observation with free access to food and water. […]
# Brain water content was measured at day 1 after ICH. […]
# ICH mice [2] = experiment: Neurological function assessment (mNSS, corner-turning test, rotarod test) in ICH mouse model; details: vs vehicle
# Source text: as §1, with “blanket.” for “blanket. After the surgery, mice were under observation with free access to food and water.”
# The neurological function assessment was performed by investigators who were blinded to the two treatment groups. The modified Neurological Severity Score (mNSS), corner-turning test, and rotarod test were conducted to evaluate the neuro-deficits of the ICH mice at defined time points as described (Li et al., Proc. Nat. Acad. Sci. USA 114:E396-E405 (2017)). mice were evaluated for motor function (muscle and abnormal movement), sensory (visual, tactile, and proprioceptive), and reflexes (pinna, corneal, startle reflexes). […] The corner-turning test was used to evaluate the sensorimotor damage to quantify the turning preference (right or left) upon approaching a 30° corner. […] The percentage of ipsilateral turns was then calculated. […] The duration of each mouse on the rod was recorded. […]
# ICH mice [3] = experiment: Brain infiltrating neutrophils by flow cytometry in ICH mouse model; details: vs vehicle
# Source text: as §1, with “μl/min.” for “μl/min. Mice on the sham control were injected with an equal volume of saline. Throughout the procedure, the body temperature was maintained at 37° C. with a homeothermic blanket. After the surgery, mice were under observation with free access to food and water.”
# Single cell suspension of brain tissues was prepared and stained with fluorochrome-conjugated antibodies. […] Flow cytometric measurements were performed on a FACS Aria III (BD Bioscience) and analyzed using Flowjo 7.6 software (Informer Technologies, Ashland, OR, USA).
# [4] = day 1 and day 3 after ICH, 5 mg/kg i.p.
compound,measurement,setting,value
"Cc1ccc(O)c(-c2[nH]nc3c2C(c2ccc(C(F)(F)F)cc2)N(C2CCOCC2)C3=O)c1 (racemic) [Compound 1, Rac-3-(2-hydroxy-5-methylphenyl)-5-(tetrahydro-2H-pyran-4-yl)-4-(4-(trifluoromethyl)phenyl)-4,5-dihydropyrrolo[3,4-c]pyrazol-6(2H)-one]",total brain water content,ICH mice [1],significantly reduced
same,neurological outcomes,"ICH mice [2]; 5 mg/kg/daily i.p., first dose 1 h after ICH onset",improved
same,"locomotor function scores (corner turn test, rotarod test)",ICH mice [2]; [4],improved
same,modified neurological symptom score (mNSS),ICH mice [2]; [4],improved
same,reduction of total number of brain-infiltrated neutrophils,"ICH mice [3]; Day 3, 5 mg/kg i.p.",54%
same,reduction of total number of brain-infiltrated neutrophils,"ICH mice [3]; Day-1, 5 mg/kg i.p.",47%

# — patent US20240109897A1, “MODULATORS OF FPR1 AND METHODS OF USING THE SAME” (BEIJING TIANTAN HOSPITAL, priority 2021, published 2024)
